Measurements published in EP1796707B1, “PEPTIDES THAT SELECTIVELY HOME TO HEART VASCULATURE AND RELATED CONJUGATES AND METHODS” (The Burnham Institute, priority 2004, dated 2011).

How the values were obtained:
heart vasculature = assay: In vivo phage homing to the heart after intravenous injection; details: peptide displayed on T7Select 415-1 phage, assayed individually, intravenous injection into mice
Protocol: In vivo panning was performed as follows. The ex vivo-selected phage pool (5 x 10^9 p.f.u.) was intravenously injected into mice through the tail vein and allowed to circulate for ten minutes before mice were carefully perfused through the left ventricle with DMEM in order to remove unbound intravascular phage. The heart and control tissues (brain, kidney, skin and muscle) were excised, and phage recovered as described in Hoffman et al., supra, 2004. Phage recovered from the heart were reinjected into mice, and the cycle was repeated for a total of three rounds. Non-recombinant phage were injected into a separate mouse as a control in each experiment.
As summarized in Table 1, receptor clone 5 represents the carboxy-terminal 92 amino acids of heart LIM-protein (HLP), also designated cysteine-rich protein 2 (CRIP2) and ESP 1. HLP, which is expressed in the vascular heart (Yu et al., Mech. Dev. 116:187-192 (2002)) is a LIM domain-containing protein having homology to Crp-1 (Karim et al., Genomics 31:167-176 (1996); and van Ham et al., Genes Cells 8:631-644 (2003)). Of the five positive colonies from the two-hybrid analysis with the HLP clone, three cognate peptides were identified: CRPPR (SEQ ID NO: 1) was present twice, CGRKSKTVC (SEQ ID NO: 2) once and CGNQVDSRC (SEQ ID NO: 3) twice. After cloning these peptides into the T7Select 415-1 display vector, they were assayed for their ability to home to heart vasculature following intravenous injection. Relative to non-recombinant phage, the CRPPR (SEQ ID NO: 1)-displaying phage homed with more than 300 fold selectivity to the heart (Figure 2A).
Individual phage clones were reconstructed as follows. Oligonucleotides that encoded peptides from selected bait plasmids were synthesized, phosphorylated with T4 polynucleotide kinase (PNK; NEB) at 37°C for one hour, and annealed at a concentration of 0.08 pmol/µl. The annealed inserts were diluted to 0.04 pmol/µl and ligated into T7Select 415-1 arms (Novagen) with T4 ligase overnight at 16°C. The next day, intact recombinant phage were prepared by mixing the ligation reaction with packaging extracts as described by the manufacture. Inserts were confirmed by sequencing, and individual clones were amplified for ex vivo and in vivo testing as described in Example I above.

heart endothelia = assay: Phage localization in tissues: co-injection with fluorescein-conjugated tomato lectin, anti-T7 immunostaining; format: in vivo, mice; details: peptide displayed on phage, anti-T7 antibody; for phage presence in heart endothelia: injected intravenously with fluorescein-conjugated tomato lectin; for phage detection in tissues other than heart: same conditions
Protocol: Further characterization was performed on the five most efficient homing peptides, as indicated by the fold-selectivity summarized in Table 1, and their putative receptors. These homing peptides were analyzed for the ability to selectively bind heart endothelia in vivo and for specific binding to their putative receptors, which also were analyzed for expression in heart endothelia. Each of the phage-displaying a particular homing peptide was individually injected intravenously into mice with fluorescein-conjugated tomato lectin, a blood vessel marker. […] None of the six phage were detected in tissues other than heart under the same conditions.
Immunohistochemistry was performed as follows. Rat monoclonal anti-mouse CD31 (1:100) was obtained from BD Pharmingen (San Jose, CA), and rabbit polyclonal anti-T7 phage (1:500), and chicken anti-mouse CRIP2 IgY (1:100) were obtained from GenWay (San Diego, CA). Secondary antibodies, AlexaFluor-488 goat anti-rat IgG (1:1000) and AlexaFluor-594 goat anti-rat or rabbit IgG (1:1000) were obtained from Molecular Probes (Eugene, OR); the secondary antibody GAYFC-AlexaFluor 594 goat anti-IgY Fc (1:250) was obtained from GenWay. Frozen sections were preincubated with blocking buffer (5% normal goat serum and 0.5% BSA in 1x PBS) for one hour, washed three times with PBS, and incubated with the primary antibody of interest overnight at 4°C. After the overnight incubation, secondary antibodies were added and incubated for one hour at room temperature. Slides were washed three times with PBS and mounted in Vectashield Mounting Medium with DAPI (Vector Laboratories; Burlingame, California). Blood vessels were additionally visualized by intravenous injection with Lycopersicon esculentum (tomato) lectin conjugated to fluorescein (100 µg in 200 µl of PBS) purchased from Vector Laboratories.

MpcII-3-related protein = assay: Phage binding to 293T cells transfected with cognate receptor, with free peptide competition; parameters: species or system murine
Protocol: (§1) Full-length cDNAs were constructed for four of the putative heart homing receptors, HLP/CRIP2, Sigirr/TIR8, and MpcII-3-related protein and bc10, and expressed in 293T cells. […]
(§2) Receptor transfections and phage binding assays were performed as follows. 293T cells were transfected with pMH6-derived plasmids (Roche Diagnostics; Indianapolis, IN) encoding HLP/CRIP2, Sigirr/TIR8, MpcII-3-retated protein and bc10 using the Fugene transfection reagent (Roche Diagnostics). Briefly, 10 µg of plasmid was mixed with 700 µl of serum-free DMEM and 30 µl of Fugene transfection reagent and incubated for 15 minutes at room temperature before the mixture was added to cells. After forty-eight hours, cells were detached from culture dishes using EDTA and washed once with PBS. Phage displaying CRPPR (SEQ ID NO: 1), CKRAVR (SEQ ID NO: 7), CRSTRANPC (SEQ ID NO: 11) or CPKTRRVPC (SEQ ID NO: 12) and nonrecombinant control phage (1 x 10^9 p.f.u) were incubated with transfected cells for two hours at 4°C. Unbound phage were removed by five washes with 1% BSA in PBS. Bound phage were rescued by addition of bacteria; binding efficiencies were determined by plaque assay as described above.
(§3) Peptides for competition assays were synthesized at The Burnham Institute peptide facility using Fmoc chemistry in a solid-phase synthesizer prior to purification by HPLC and confirmation of their identity by mass spectrometry. Fluorescein-conjugated peptides were synthesized as described in Wender et al., Proc. Natl. Acad. Sci. USA 97:13003-13008 (2000). Competition assays were performed by addition of 100 µg peptide to the cells and phage, followed by incubation at 4°C for two hours. After five washes with […], bound phage were rescued and quantitated by plaque assay.

bc10 = assay: as above; parameters: species or system murine
Protocol: as §1, §2, §3

[1] = conclusion from phage binding and competition on transfected 293T cells

Row | Sequence | heart homing selectivity relative to non-recombinant phage (heart vasculature) | phage presence in heart endothelia (heart endothelia) | phage detection in tissues other than heart (heart endothelia) | specific binding to the receptor (in words) (MpcII-3-related protein; [1]) | inhibition of phage binding to transfected cells by competition with free peptide (MpcII-3-related protein; free synthetic peptide 100 mg/ml, CRSTRANPC phage on cells transfected with MpcII-3-related protein) | specific binding to the receptor (in words) (bc10; [1]) | inhibition of phage binding to transfected cells by competition with free peptide (bc10; free synthetic peptide 100 µg/ml, CPKTRRVPC phage on bc10 transfected cells)
1 | CGRKSKTVC | about 50 fold | – | – | – | – | – | –
2 | CRSTRANPC [tested on phage and as free peptide] | about 20 fold | present in heart endothelia | absent from other tissues | specifically binds | inhibited | – | –
3 | CPKTRRVPC [tested on phage and as free peptide] | about 60 fold | present in heart endothelia | absent from other tissues | – | – | specifically binds | inhibited
4 | CSGMARTKC | ~10 fold | – | – | – | – | – | –
5 | CLIDLHVMC [peptide identified with receptor clone 27; phage served as a negative control] | – | absent from the heart | absent from the heart and other tissues | – | – | – | –
